Article PMC5784245, “An Optimized Synthetic-Bioinformatic Natural Product Antibiotic Sterilizes Multidrug-Resistant Acinetobacter baumannii-Infected Wounds” (mSphere, 2018)
Values after ≈ are worked out from the molar mass of the structure shown. Non-standard residues stand in square brackets, D forms with d. Residues, ends and D or L forms follow the SMILES beside them. dOrn = NCCC[C@@H](N)C(=O)O; Orn = NCCC[C@H](N)C(=O)O

What was measured:
[1] = test system: Acinetobacter baumannii; type: cell-based; details: 24 h
Description: (§1) Wang resins were purchased from Matrix Innovation. Reagents for peptide synthesis were purchased from P3 BioSystems, Chempep, and Chem-Impex International. The fluorescent dyes DiBAC4 and SYTOX were purchased from Thermo Fisher Scientific, and media were prepared from premixed powders: brain heart infusion for S. sobrinus and L. rhamnosus (Hardy Diagnostics), yeast extract-peptone-dextrose for C. albicans, lysogeny broth (LB) for all other bacteria (BD Biosciences), and McCoy’s 5A medium with 10% fetal bovine serum for HT-29 cells (American Type Culture Collection). All other chemicals and consumables were purchased from Sigma-Aldrich and VWR International. Paenimucillin 4F for in vivo studies was purchased from Ontores Biotechnologies as a high-performance liquid chromatography (HPLC)-purified peptide and used as is. Dye assays were performed in a Gen5 microtiter plate reader (Biotek Instruments). Liquid chromatography-mass spectrometry (LC-MS) analyses were performed by using an Acquity system (Waters Corporation).
(§2) Standard susceptibility assays were performed in LB medium in 96-well microtiter plates to determine the MIC by the broth microdilution method in accordance with protocols recommended by Clinical and Laboratory Standards Institute ([35]). Cytotoxicity was assessed using human HT-29 cells based on a similar broth microdilution method ([36]). All assays were performed in duplicate. For the cytotoxicity assay, 5,000 HT-29 cells per well were seeded into a microtiter plate and cultured for 24 h at 37°C in a 5% CO2 atmosphere. Peptides were supplemented at concentrations ranging from 128 to 0.5 μg/ml, and the cells were incubated for another 20 h. Growth media were removed, 3-(4,5-dimethylthiazol-2-yl)-2,5-diphenyltetrazolium bromide (MTT) was added to all wells (220 μl per well at 0.5 mg/ml), the mixture was incubated for 4 h, and then the media were discarded. Cell viability was determined by visual inspection.

[2] = test system: Bacillus subtilis; type: cell-based; details: 24 h
Description: as §1, §2

[3] = test system: Enterobacter cloacae; type: cell-based; details: 24 h
Description: as §1, §2

[4] = test system: Enterococcus faecalis; type: cell-based; details: 24 h
Description: as §1, §2

[5] = test system: Enterococcus faecium; type: cell-based; details: 24 h
Description: as §1, §2

[6] = test system: Klebsiella pneumoniae; type: cell-based; details: 24 h
Description: as §1, §2

[7] = test system: Lactobacillus rhamnosus; type: cell-based; details: 24 h
Description: as §1, §2

[8] = test system: Pseudomonas aeruginosa; type: cell-based; details: 24 h
Description: as §1, §2

[9] = test system: Staphylococcus aureus; type: cell-based; details: 24 h
Description: as §1, §2

[10] = test system: Streptococcus sobrinus; type: cell-based; details: 24 h
Description: as §1, §2

[11] = test system: A. baumannii clinical isolate 1788; type: cell-based, Acinetobacter baumannii; details: clinical isolate 1788, 24 h
Description: as §1, §2

[12] = test system: A. baumannii clinical isolate 1790; type: cell-based, Acinetobacter baumannii; details: clinical isolate 1790, 24 h
Description: as §1, §2

[13] = test system: A. baumannii clinical isolate 1791; type: cell-based, Acinetobacter baumannii; details: clinical isolate 1791, 24 h
Description: as §1, §2

[14] = test system: A. baumannii clinical isolate 1795; type: cell-based, Acinetobacter baumannii; details: clinical isolate 1795, 24 h
Description: as §1, §2

[15] = test system: A. baumannii clinical isolate 1797; type: cell-based, Acinetobacter baumannii; details: clinical isolate 1797, 24 h
Description: as §1, §2

[16] = test system: A. baumannii clinical isolate S3; type: cell-based, Acinetobacter baumannii; details: clinical isolate S3, 24 h
Description: as §1, §2

[17] = test system: A. baumannii clinical isolate S5; type: cell-based, Acinetobacter baumannii; details: clinical isolate S5, 24 h
Description: as §1, §2

[18] = test system: C. albicans; assay: Toxicity assessment, MIC against C. albicans; type: cell-based, Candida albicans; details: Brady lab strain; yeast extract-peptone-dextrose; surrogate for cytotoxicity; duplicate
Description: as §1, with “Liquid chromatography-mass spectrometry (LC-MS) analyses were performed by using an Acquity system (Waters Corporation).” left out
Standard susceptibility assays were performed in LB medium in 96-well microtiter plates to determine the MIC by the broth microdilution method in accordance with protocols recommended by Clinical and Laboratory Standards Institute ([35]). Cytotoxicity was assessed using human HT-29 cells based on a similar broth microdilution method ([36]). […] Cell viability was determined by visual inspection.

[19] = test system: MDR A. baumannii strain AB5075; assay: microbe, parasite or virus in culture; type: cell-based, Acinetobacter baumannii; details: MDR strain AB5075, 24 h
Description: as §2

[20] = test system: MDR A. baumannii strain AB5075; assay: Rat cutaneous wound model, efficacy; type: in vivo, Sprague-Dawley rats; details: rat wound infected with AB5075 (500 CFU), topical 10 mg/ml twice daily
Description: (§3) The rat cutaneous wound model was used as described previously ([21]). Protocols for animal studies were approved by the Rutgers University Institutional Animal Care and Use Committee. All animals were humanely euthanized at the study endpoint by following the AVMA Guidelines for the Euthanasia of Animals. Immunocompetent Sprague-Dawley female rats (~200 g) were anesthetized by intraperitoneal injection of 100 mg/kg ketamine plus 10 mg/kg xylazine. Using a 1.0-cm-diameter disposable biopsy punch, two symmetrical wounds were created on the dorsum of each rat. A circular gauze dressing 8 mm in diameter was saturated overnight with either vehicle or 4F at 10 mg/ml in sterile centrifuge tubes. To assess tolerability, the rats were weighed daily and observed for wound healing, behavior changes, and visible adverse drug effects for 5 days. To assess efficacy, A. baumannii strain AB5075 was grown overnight and the culture was diluted to provide the challenge inoculum (500 CFU) as 50 μl of bacterial suspension in 0.9% (wt/vol) NaCl. A circular gauze dressing 8 mm in diameter was saturated overnight with vehicle, tetracycline, or 4F at 10 mg/ml in sterile centrifuge tubes. These saturated dressings were topically applied to the wound site with sterile forceps twice daily, starting at 30 min postinoculation, for 6 days. Rats were observed twice daily for morbidity and possible signs of acute toxicity. Two and four independent cutaneous wounds were tested in tolerability and efficacy assessments, respectively.

[21] = Rat cutaneous wound model, tolerability; type: in vivo, Sprague-Dawley rats; details: uninfected wounded rats, topical 10 mg/ml
Description: as §3, with “Rats were observed twice daily for morbidity and possible signs of acute toxicity. Two and four independent cutaneous wounds were tested in tolerability and efficacy assessments, respectively.” left out

[22] = test system: A. baumannii; assay: Membrane depolarization assay (DiBAC4); type: cell-based, Acinetobacter baumannii; details: 4× MIC (8 μg/ml); DiBAC4 fluorescence at endpoint of assay; polymyxin at 4× MIC
Description: In a membrane depolarization assay ([31]), A. baumannii colonies were scraped off an agar plate and suspended in LB to optical density at 600 nm (OD600) of 0.5 to 0.6. The resulting suspension (1.8 ml) was mixed 9:1 with DiBAC4 (20 μg/ml), incubated at room temperature for 5 min, and monitored at 2-s intervals (excitation/emission, 492/515 nm) for 2 min. Various solutions were added (10 μl) while the fluorescence signal was continually being monitored. Paenimucillin C was tested at final concentrations of 2× and 4× its MIC, and polymyxin B and DMSO were used as positive and negative controls, respectively. The treated cultures were then monitored at 2-s intervals for another 5 min. Pore formation assays ([32]) were performed in the same way, except that Triton X-100 was used as the positive control at a final concentration of 0.25% (wt/vol).

[23] = test system: A. baumannii; assay: Pore formation assay (SYTOX); type: cell-based, Acinetobacter baumannii; details: 4× MIC (8 μg/ml), SYTOX fluorescence

## CC[C@@H](C)[C@@H](NC(=O)[C@@H](NC(=O)[C@H](CO)NC(=O)[C@H](Cc1ccccc1)NC(=O)[C@@H](CCCN)NC(=O)[C@H](CO)NC(=O)[C@H](CO)NC(=O)[C@@H](Cc1ccccc1)NC(=O)[C@@H](CO)NC(=O)[C@H](NC(=O)[C@@H](CCCN)NC(=O)[C@@H](Cc1ccccc1)NC(C)=O)[C@H](C)CC)C(C)C)C(=O)N[C@@H](CCCN)C(=O)O [4F, paenimucillin C] (Ac-[dF][dOrn][dI][dS][dF]SS[dOrn]FSV[dI][Orn]-OH)
[1]
  MIC Acinetobacter baumannii: 2 µg/mL (≈ 1.32 µM)
[2]
  MIC Bacillus subtilis: 16 µg/mL (≈ 10.5 µM)
[3]
  MIC Enterobacter cloacae: 32 µg/mL (≈ 21.1 µM)
[4]
  MIC Enterococcus faecalis: 64 µg/mL (≈ 42.2 µM)
[5]
  MIC Enterococcus faecium: 32 µg/mL (≈ 21.1 µM)
[6]
  MIC Klebsiella pneumoniae: 4 µg/mL (≈ 2.64 µM)
[7]
  MIC Lactobacillus rhamnosus: 16 µg/mL (≈ 10.5 µM)
[8]
  MIC Pseudomonas aeruginosa: 128 µg/mL (≈ 84.3 µM)
[9]
  MIC Staphylococcus aureus: 32 µg/mL (≈ 21.1 µM)
[10]
  MIC Streptococcus sobrinus: 16 µg/mL (≈ 10.5 µM)
[11]
  MIC for A. baumannii clinical isolate 1788: 4 µg/mL
[12]
  MIC for A. baumannii clinical isolate 1790: 4 µg/mL
[13]
  MIC for A. baumannii clinical isolate 1791: 2 µg/mL
[14]
  MIC for A. baumannii clinical isolate 1795: 4 µg/mL
[15]
  MIC for A. baumannii clinical isolate 1797: 4 µg/mL
[16]
  MIC for A. baumannii clinical isolate S3: 4 µg/mL
[17]
  MIC for A. baumannii clinical isolate S5: 4 µg/mL
[18]
  MIC, toxicity assessment, C. albicans: 128 µg/mL (≈ 84.3 µM)
[19]
  in vitro MIC, A. baumannii AB5075: 1 µg/mL
[20]
  wound sterilization after 1 day: completely sterilized the wounds
[20]; P < 0.00001
  bacterial burden throughout the 5-day study: 0 CFU
[21]; 5 days, within normal range due to analgesia, two wounds
  weight loss: ≤ 5%
[21]; observed 5 days
  acute toxicity and change in behavior: Neither acute toxicity nor any change in behavior was seen
[22]
  membrane depolarization relative to polymyxin: ~ 25%
[23]
  pore formation relative to Triton X-100: ~ 75%
